Assay results as given in article PMC3850926, “Evaluation of the adverse event profile and pharmacodynamics of toceranib phosphate administered to dogs with solid tumors at doses below the maximum tolerated dose” (BMC Veterinary Research, 2013).
Entries after “also recorded” stand apart in the source; their conditions may differ. Where two headings read alike, the source gives them in different places.

Legend:
solid tumors = assay: Tumor response assessment (RECIST v.1.1); format: in vivo, dog
Experimental: (§1) A total of 40 dogs were enrolled in this study, with dogs initially assigned to toceranib at 2.5 mg/kg or 2.75 mg/kg EOD. All dogs were placed on famotidine at 0.5-1 mg/kg once per day at study initiation and owners were instructed to administer the toceranib in the morning with food. Physical examination, routine bloodwork (CBC, biochemistry profile) and blood sampling for assessment of toceranib and VEGF plasma concentrations was performed pretreatment and on days 0, 7, 14 and 30 of treatment. […] Owners of dogs that experienced CR, PR, or SD at study day 30 were offered the option of continuing toceranib administration for an additional 6 months (provided at no cost), although patient data was not officially captured beyond day 30.
Tumor assessments were performed on days 0, 7, 14 and 30 of study. Tumor assessment was performed using caliper measurement with digital photography documentation, thoracic radiography, ultrasonography, or spiral computerized tomography (CT) as indicated. Determination of antitumor efficacy was based on objective tumor assessments made according to the RECIST v.1.1 guidelines using unidimensional measurements. Response to therapy was defined as complete response (CR, resolution of all target and non-target lesions, no new lesions), partial response (PR, at least 30% decrease in the longest diameter of target lesions, no progression of non-target lesions, and no new lesions), stable disease (SD, decrease in target lesions of less than 30% or increase of target lesions less than 20%, no progression of non-target lesions, and no new lesions) or progressive disease (PD, greater than 20% increase in target lesions, progression of non-target, new lesions). Dogs were defined as experiencing clinical benefit if they had CR, PR, or SD.

[1] = Toceranib plasma concentrations (LC-MS/MS) in dogs with solid tumors; format: in vivo, dog; conditions: for Cmax: dog, plasma, oral
Experimental: as §1
(§2) Blood was collected into EDTA tubes and centrifuged at 3000 × g for 10 minutes. Plasma was then collected and split evenly into two portions in cryovials, then stored at -80°C until analysis was performed for toceranib and VEGF concentrations.
Toceranib was quantitated in plasma samples using the method previously described. Briefly, 50 μL aliquots of plasma were fortified with an internal standard (IS), a deuterated toceranib analog. Toceranib and the IS were extracted from the plasma by protein precipitation using acetonitrile. The analyte and IS are light sensitive and undergo photoisomerization when exposed to light. Therefore, the 96-well plates were protected from light by wrapping the bottom and sides with foil and securing with adhesive tape. Calibration standards (1 to 1000 ng/mL) and quality control (QC) samples were prepared with separate weighing of toceranib reference material (Pfizer, Kalamazoo, MI, 98.1% purity). Standard and QC solutions were prepared by serially diluting a stock solution (100 μg/mL in methanol) into control canine plasma so that no standard or QC sample contained more that 1% methanol. Study samples were analyzed as single replicates.
The prepared samples were injected onto a Zorbax StableBond CN column and elution of toceranib and the IS accomplished with an acetonitrile:15 mM ammonium formate solution (pH 3.25) 30/70 v/v mobile phase with a 80/20 v/v rinse for 2.3 minutes at 5 minutes after each injection. Detection was accomplished using MS/MS using a Sciex 4000 triple-quadrupole mass spectrometer with Turboionspray ionization source (MDS Sciex, Toronto, Canada). Transition ions of m/z 397.2 → 283.2 for toceranib and 401.3 → 283.2 for the IS were used. The standard curves were generated using peak area ratios of toceranib to the IS and a 1/concentration^2 weighted quadratic regression. Toceranib concentrations were determined by interpolation over the quantitation range of 1.00 ng/mL to 1000 ng/mL.

KIT = conditions: dogs with MCT, 8 hours post drug administration; cited from earlier work
dogs with MCT = conditions: dog, in vivo, cited from earlier work
VEGF = assay: Plasma VEGF concentrations (Canine VEGF Quantikine ELISA); format: in vivo, dog
Experimental: as §1, §2
A solid phase sandwich ELISA was used to measure plasma concentrations of VEGF. […] All standards and samples were performed in duplicate and the absorbance reading at […] was subtracted from the absorbance reading at […].
VEGF concentrations were analyzed in terms of percent change from baseline. […]

[2] = test system: target receptor tyrosine kinases; set-up: method as in PMID 12538485; conditions: established in rodent studies; cited from earlier work

Cc1[nH]c(/C=C2\C(=O)Nc3ccc(F)cc32)c(C)c1C(=O)NCCN1CCCC1 [toceranib, Toceranib phosphate]
average time dogs remained on toceranib after day 30 (solid tumors; 35 of the 40 dogs): 16.7 weeks | PD (number of dogs) (solid tumors; Nasal carcinoma, N 5): 2 | PR (number of dogs) (solid tumors; Salivary gland adenocarcinoma, N 1): 1 | PD (number of dogs) (solid tumors; Soft tissue sarcoma, N 7): 2 | PR (number of dogs) (solid tumors; Squamous cell carcinoma, N 4): 2 | PR (number of dogs) (solid tumors; Thyroid carcinoma, N 7): 2 | clinical benefit (number of dogs) (solid tumors; over 30 days): 36/40 | PD (number of dogs), all tumor types (solid tumors; over 30 days, 40 dogs): 4 dogs | PD (percent of dogs) (solid tumors; over 30 days, 40 dogs): 10% | PR (number of dogs), all tumor types (solid tumors; over 30 days, 40 dogs): 5/40 | PR (percent of dogs) (solid tumors; over 30 days, 40 dogs): 12.5% | overall clinical benefit rate (CR + PR + SD) (solid tumors; over 30 days, 40 dogs): 90% | dogs that transitioned from SD to PR after day 30 (solid tumors; thyroid carcinoma): one | dogs that transitioned to CR after day 30 (solid tumors; two SCC and one salivary gland adenocarcinoma): 3 dogs | course of presumed Cmax plasma concentration ([1]; EOD regimen, levels out by day 30): increased gradually in most dogs over the first 2 weeks of dosing | dogs with Cmax at 12 hours (number) ([1]; day 30): 12 dogs | reported Cmax as percent of the 12 hour concentration ([1]; day 30, the 12 dogs with Cmax at 12 hours): 51% to 98% | Cmax ([1]; all dose ranges above 2.4 mg/kg, days 0, 7, 14, 30, read-out: median Cmax): > 40 ng/mL | Cmax ([1]; dose ranges 2.4-2.9 mg/kg EOD, by day 30, read-out: mean presumed Cmax): 100 to 200 ng/mL | Median plasma concentration measured at 6 or 8 hours, level after first two weeks ([1]; dogs dosed 2.4-2.9 mg/kg EOD): 100 to 120 ng/mL | difference among dosing groups in 6 or 8 hour drug concentrations (presumed Cmax) ([1]; dogs dosed 2.4-2.9 mg/kg, each time point): no significant difference | plasma drug concentration relative to the other dose groups ([1]; dogs dosed at 2.30-2.39 mg/kg (3 dogs)): lower concentrations of drug at all time points | average 6–8 hr plasma concentration ([1]; dogs with solid tumors, 2.4-2.9 mg/kg every other day): 100 to 120 ng/mL | lowest plasma concentration with intratumoral target modulation (downregulation of KIT and/or ERK phosphorylation) (KIT): 30 ng/mL | dogs with dose changed (drug holiday and/or dose reduction) (dogs with MCT; 3.25 mg/kg): 48.3% | dogs that had a dose reduction due to AEs (dogs with MCT): approximately 20% | change in plasma VEGF concentrations over the 30 day treatment period (VEGF; 8 hours post dosing, days 0, 7, 14, 30, p < 0.001): increase significantly; also recorded: increased over time | association of change in VEGF with Cmax and Tmax (VEGF; linear mixed models): associated with Cmax (p < 0.001), but not Tmax (p = 0.74) | plasma concentration threshold for receptor (target) inhibition in vivo [2]: 40 ng/mL
